The source of these data is PMC8571951, “An activity‐based bioprobe differentiates a novel small molecule inhibitor from a LOXL2 antibody and provides renewed promise for anti‐fibrotic therapeutic strategies” (Clinical and Translational Medicine, 2021).

The target of one assay is T1, Recombinant human LOXL1 (Homo sapiens, UniProt Q08397).
T1 sequence (Q08397 96-574): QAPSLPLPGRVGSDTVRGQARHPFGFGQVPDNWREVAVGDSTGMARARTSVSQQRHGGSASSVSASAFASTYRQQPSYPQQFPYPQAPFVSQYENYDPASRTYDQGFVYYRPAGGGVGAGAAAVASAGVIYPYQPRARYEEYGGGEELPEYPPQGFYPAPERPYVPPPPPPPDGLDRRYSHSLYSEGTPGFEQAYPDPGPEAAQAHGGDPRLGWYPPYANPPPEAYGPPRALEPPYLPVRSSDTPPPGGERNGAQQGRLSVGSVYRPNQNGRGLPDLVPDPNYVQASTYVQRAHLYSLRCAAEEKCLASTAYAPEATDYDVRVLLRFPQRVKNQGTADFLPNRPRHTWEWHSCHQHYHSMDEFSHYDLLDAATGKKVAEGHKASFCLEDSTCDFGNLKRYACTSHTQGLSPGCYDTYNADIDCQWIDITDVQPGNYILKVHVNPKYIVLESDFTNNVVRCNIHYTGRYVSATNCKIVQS
Nature of the assay: Standard Amplex Red assay, rh LOXL1. Type of assay: biochemical. The note with it: 30 min pre-incubation. The text has this: (§1) FIGURE 1 Characteristics of the activity‐based probe (ABP) PXS‐5878. (A) Chemical structure of PXS‐5878, with functional subunits denoted with different colours. The fluoroallylamine moiety (blue) was designed to interact with the lysine tyrosylquinone (LTQ) co‐factor within the lysyl oxidase active sites. An extended linker (green) was incorporated to provide optimal separation between the reactive functional group and the tag, avoiding unfavourable steric hindrance. Biotin was selected as a tag, with higher sensitivity found to be achieved using a double tag (red), resulting in PXS‐5878 as the preferred ABP. (B) Concentration‐dependent inhibition of recombinant human (rh) lysyl oxidase‐like 1‐4 (LOXL1‐4) and native bovine LOX in a standard Amplex Red assay with 30 min pre‐incubation; n = 3–4 independent experiments, standard error of mean (SEM). Native bovine LOX was used as a surrogate for human LOX as both enzymes have similar pharmacology for fluoroallylamines.[2], [9] (C) Irreversible nature of PXS‐5878 enzyme inhibition confirmed using a jump dilution assay. […]
(§2) FIGURE 2 Characteristics of PXS‐5338 and inhibition of lysyl oxidase‐like 2 (LOXL2) enzymatic activity in vitro and in vivo. […] (B) Tissue levels of PXS‐5338 measured 1 and 4 h after a single oral dose of 30 mg/kg in the rat. […]

The next assay has as its target T2, LOXL3 (Homo sapiens, UniProt P58215).
T2 sequence (P58215 26-753): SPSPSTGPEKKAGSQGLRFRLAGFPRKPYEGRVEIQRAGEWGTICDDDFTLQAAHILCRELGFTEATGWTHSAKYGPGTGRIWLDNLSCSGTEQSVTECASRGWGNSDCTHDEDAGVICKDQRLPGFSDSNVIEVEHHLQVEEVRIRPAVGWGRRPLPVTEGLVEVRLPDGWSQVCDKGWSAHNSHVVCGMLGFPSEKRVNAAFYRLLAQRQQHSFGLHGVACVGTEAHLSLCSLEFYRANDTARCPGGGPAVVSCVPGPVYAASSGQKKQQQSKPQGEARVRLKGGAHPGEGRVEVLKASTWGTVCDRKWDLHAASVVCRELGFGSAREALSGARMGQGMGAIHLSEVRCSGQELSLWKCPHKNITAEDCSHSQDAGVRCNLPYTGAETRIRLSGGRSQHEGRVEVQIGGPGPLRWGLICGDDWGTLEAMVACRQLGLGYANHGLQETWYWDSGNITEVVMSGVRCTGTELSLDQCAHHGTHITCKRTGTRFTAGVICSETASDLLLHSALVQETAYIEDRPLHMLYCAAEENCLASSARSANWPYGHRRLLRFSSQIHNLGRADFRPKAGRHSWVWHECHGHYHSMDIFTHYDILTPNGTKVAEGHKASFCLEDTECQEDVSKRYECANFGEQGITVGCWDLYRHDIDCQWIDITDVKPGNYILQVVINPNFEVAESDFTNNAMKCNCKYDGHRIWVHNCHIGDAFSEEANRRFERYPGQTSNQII
The assay is described as follows: Standard Amplex Red assay, rh LOXL3. Type of assay: biochemical. Particulars: 30 min pre-incubation.
Excerpt: as §1, §2

A word on the IC50: it is the point on the concentration scale where inhibition reaches its midpoint. As for `CC(C)c1c(Cc2ccc(S(C)(=O)=O)nc2)c2ncccc2n1C/C(F)=C/CN` [PXS-5338], the IC50 at Recombinant human LOXL1 was found to be 2530 nM; at LOXL3, 385 nM.
As for `NC/C=C(\F)CS(=O)(=O)c1cccc(Cn2cc(-c3cc(OCCCc4cn(CCCCC[C@@H]5SC[C@@H]6NC(=O)N[C@@H]65)nn4)cc(OCCCc4cn(CCCCC[C@@H]5SC[C@@H]6NC(=O)N[C@@H]65)nn4)c3)nn2)c1` [PXS-5878], the results for the IC50 at Recombinant human LOXL1 and at LOXL3 were 1770 nM and 973 nM, respectively.
